Laboratory results taken from ChEMBL document CHEMBL3808348, “Rational Design, Synthesis, and Biological Evaluation of 7-Azaindole Derivatives as Potent Focused Multi-Targeted Kinase Inhibitors” (J Med Chem, 2016).
pEC50, pIC50: −log10 of the molar value.

Tests used:
[1] = biological target: Tyrosine-protein kinase ABL1 (Homo sapiens, UniProt P00519, E255K); assay: Inhibition of His-tagged full length human recombinant ABL E255K mutant expressed in baculovirus using Fluorescein-Poly GT as substrate
[2] = tested on: Tyrosine-protein kinase ABL1 (Homo sapiens), P00519 [G250E]; assay: Inhibition of His-tagged full length human recombinant ABL G250E mutant expressed in baculovirus using Fluorescein-Poly GT as substrate at 100 nM
[3] = biological target: Ephrin type-B receptor 2 (Homo sapiens) (UniProt P29323); assay: Inhibition of GST-tagged human recombinant EPHB2 (616 to 884 residues) expressed in baculovirus using Fluorescein-Poly GT as substrate at 100 nM
[4] = biological target: Proto-oncogene tyrosine-protein kinase receptor Ret (Homo sapiens) (UniProt P07949); conditions: 100 nM
Description: Inhibition of GST-tagged human recombinant RET (658 to 1114 residues) expressed in baculovirus using Fluorescein-Poly GT as substrate at 100 nM

[5] = biological target: CDK7/Cyclin H/MNAT1 (Homo sapiens) (UniProt P51946+P50613+P51948); conditions: 100 nM
Description: Inhibition of CDK7/cyclinH/MNAT1 (unknown origin) at 100 nM

[6] = biological target: Mast/stem cell growth factor receptor Kit (Homo sapiens) (UniProt P10721); conditions: 100 nM
Description: Inhibition of His-tagged human recombinant cKIT expressed in baculovirus using Fluorescein-Poly GT as substrate at 100 nM

[7] = biological target: Tyrosine-protein kinase ABL1 (Homo sapiens, UniProt P00519, G250E); assay: Inhibition of His-tagged full length human recombinant ABL G250E mutant expressed in baculovirus using Fluorescein-Poly GT as substrate
[8] = biological target: RAC-beta serine/threonine-protein kinase (Homo sapiens) (UniProt P31751); conditions: 100 nM
Description: Inhibition of full length His-tagged human recombinant AKT2 expressed in baculovirus using Fluorescein-Crosstide as substrate at 100 nM

[9] = biological target: Tyrosine-protein kinase Yes (Homo sapiens, UniProt P07947); assay: Inhibition of GST-tagged full length human recombinant YES expressed in baculovirus using Fluorescein-Poly GT as substrate at 100 nM
[10] = tested on: Tyrosine-protein kinase ABL1 (Homo sapiens), P00519 [Y253F]; assay: Inhibition of His-tagged full length human recombinant ABL Y253F mutant expressed in baculovirus using Fluorescein-Poly GT as substrate at 100 nM
[11] = Cmax in Swiss mouse plasma at 2 mg/kg, iv by LC/MS/MS analysis; assay type: ADME, organism-based; set-up: dose 2 mg/kg, route intravenous
HT-29 = assay: Antiproliferative activity against human HT-29 cells after 72 hrs by MTT assay; assay type: functional, cell-based; conditions: HT-29, 72 h
[12] = biological target: cAMP-dependent protein kinase catalytic subunit alpha (Homo sapiens) (UniProt P17612); conditions: 100 nM
Description: Inhibition of His-tagged human recombinant PKA C-alpha (1 to 351 residues) expressed in Escherichia coli using Fluorescein-Crosstide as substrate at 100 nM

[13] = biological target: Tyrosine-protein kinase Mer (Homo sapiens) (UniProt Q12866); conditions: 100 nM
Description: Inhibition of GST-tagged human recombinant cMER expressed in baculovirus using Fluorescein-Poly GT as substrate at 100 nM

[14] = biological target: Tyrosine-protein kinase receptor UFO (Homo sapiens) (UniProt P30530); conditions: 100 nM
Description: Inhibition of full length His-tagged human recombinant AXL expressed in insect expression system using Fluorescein-Poly GT as substrate at 100 nM

[15] = biological target: Cyclin-dependent kinase 1/cyclin B1 (Homo sapiens) (UniProt P06493+P14635); conditions: 100 nM
Description: Inhibition of CDK1/cyclinB (unknown origin) at 100 nM

[16] = biological target: Hepatocyte growth factor receptor (Homo sapiens) (UniProt P08581); conditions: 100 nM
Description: Inhibition of GST-tagged human recombinant cMET (956 to 1390 residues) expressed in baculovirus using Fluorescein-Poly GT as substrate at 100 nM

[17] = biological target: CDK2/Cyclin A2 (Homo sapiens) (UniProt P24941+P20248); conditions: 100 nM
Description: Inhibition of CDK2/cyclinA (unknown origin) at 100 nM

[18] = biological target: T1, Tyrosine-protein kinase Lck (Homo sapiens, UniProt P06239); assay: Inhibition of His-tagged full length human recombinant LCK expressed in baculovirus using Fluorescein-Poly GT as substrate
[19] = biological target: Tyrosine-protein kinase Fer (Homo sapiens) (UniProt P16591); conditions: 100 nM
Description: Inhibition of His-tagged human recombinant FER (541 to 822 residues) expressed in baculovirus using Fluorescein-Poly GT as substrate at 100 nM

[20] = biological target: Angiopoietin-1 receptor (Homo sapiens) (UniProt Q02763); conditions: 100 nM
Description: Inhibition of GST-tagged human recombinant TIE2 (817 to 1101 residues) expressed in baculovirus using Fluorescein-Poly GT as substrate at 100 nM

[21] = biological target: Epidermal growth factor receptor (Homo sapiens, UniProt P00533, T790M); assay: Inhibition of GST-tagged human recombinant EGFR T790M mutant (668 to 1210 residues) expressed in baculovirus using Fluorescein-Poly GT as substrate
[22] = biological target: Tyrosine-protein kinase Fes/Fps (Homo sapiens) (UniProt P07332); conditions: 100 nM
Description: Inhibition of His-tagged full length human recombinant FES expressed in baculovirus using Fluorescein-Poly GT as substrate at 100 nM

[23] = biological target: Tyrosine-protein kinase Lyn (Homo sapiens, UniProt P07948); assay: Inhibition of GST-tagged full length human recombinant LYNA expressed in baculovirus using Fluorescein-Poly GT as substrate at 100 nM
[24] = biological target: CDK9/cyclin T1 (Homo sapiens) (UniProt O60563+P50750); conditions: 100 nM
Description: Inhibition of CDK9/cyclinT1 (unknown origin) at 100 nM

[25] = biological target: Mitogen-activated protein kinase 14 (Homo sapiens) (UniProt Q16539); conditions: 100 nM
Description: Inhibition of GST-tagged full length human recombinant p38alpha expressed in Escherichia coli using Fluorescein-Poly GT as substrate at 100 nM

[26] = biological target: Tyrosine-protein kinase Fyn (Homo sapiens, UniProt P06241); conditions: 100 nM
Description: Inhibition of His-tagged full length human recombinant FYN expressed in baculovirus using Fluorescein-Poly GT as substrate at 100 nM

[27] = biological target: Tyrosine-protein kinase ABL2 (Homo sapiens) (UniProt P42684); conditions: 100 nM
Description: Inhibition of His-tagged full length human recombinant ARG expressed in baculovirus using Fluorescein-Poly GT as substrate at 100 nM

[28] = biological target: T1, Tyrosine-protein kinase Lck; assay: Inhibition of His-tagged full length human recombinant LCK expressed in baculovirus using Fluorescein-Poly GT as substrate at 100 nM
[29] = biological target: Serine/threonine-protein kinase B-raf (Homo sapiens) (UniProt P15056); assay: Inhibition of full length GST-tagged human recombinant BRAF expressed in baculovirus using Fluorescein-MAP2K1 as substrate at 100 nM
[30] = biological target: AMP-activated protein kinase, AMPK (Homo sapiens) (UniProt P54646+O43741+P54619+Q9UGJ0+Q9Y478+Q13131+Q9UGI9); conditions: 100 nM
Description: Inhibition of full length human recombinant AMPK expressed in baculovirus expression system using Fluorescein-CREBtide as substrate at 100 nM

[31] = biological target: Receptor tyrosine-protein kinase erbB-4 (Homo sapiens) (UniProt Q15303); conditions: 100 nM
Description: Inhibition of GST-tagged human recombinant ERBB4 (708 to 993 residues) expressed in baculovirus using Fluorescein-Poly GT as substrate at 100 nM

[32] = biological target: MAP kinase-activated protein kinase 5 (Homo sapiens) (UniProt Q8IW41); conditions: 100 nM
Description: Inhibition of His-tagged full length human recombinant MAPKAPK5 expressed in baculovirus at 100 nM

[33] = biological target: Ribosomal protein S6 kinase beta-1 (Homo sapiens) (UniProt P23443); conditions: 100 nM
Description: Inhibition of GST-tagged human recombinant p70S6K (1 to 421 residues) expressed in baculovirus using Fluorescein-Crosstide as substrate at 100 nM

[34] = biological target: Vascular endothelial growth factor receptor 3 (Homo sapiens) (UniProt P35916); conditions: 100 nM
Description: Inhibition of GST-tagged human recombinant VEGFR3 (800 to 1297 residues) expressed in baculovirus using Fluorescein-Poly GT as substrate at 100 nM

[35] = biological target: Tyrosine-protein kinase Fgr (Homo sapiens) (UniProt P09769); assay: Inhibition of His-tagged full length human recombinant FGR expressed in baculovirus using Fluorescein-Poly GT as substrate at 100 nM
[36] = biological target: Protein kinase C gamma type (Homo sapiens) (UniProt P05129); conditions: 100 nM
Description: Inhibition of full length human recombinant PKCgamma expressed in baculovirus using Fluorescein-PKC as substrate at 100 nM

[37] = Tmax in Swiss mouse plasma at 2 mg/kg, iv by LC/MS/MS analysis; assay type: ADME, organism-based
[38] = biological target: Tyrosine-protein kinase ABL1 (Homo sapiens, UniProt P00519); assay: Inhibition of His-tagged full length human recombinant wild type ABL expressed in baculovirus using Fluorescein-Poly GT as substrate at 100 nM

Chain of Proto-oncogene tyrosine-protein kinase receptor Ret (Homo sapiens) (P07949 whole entry): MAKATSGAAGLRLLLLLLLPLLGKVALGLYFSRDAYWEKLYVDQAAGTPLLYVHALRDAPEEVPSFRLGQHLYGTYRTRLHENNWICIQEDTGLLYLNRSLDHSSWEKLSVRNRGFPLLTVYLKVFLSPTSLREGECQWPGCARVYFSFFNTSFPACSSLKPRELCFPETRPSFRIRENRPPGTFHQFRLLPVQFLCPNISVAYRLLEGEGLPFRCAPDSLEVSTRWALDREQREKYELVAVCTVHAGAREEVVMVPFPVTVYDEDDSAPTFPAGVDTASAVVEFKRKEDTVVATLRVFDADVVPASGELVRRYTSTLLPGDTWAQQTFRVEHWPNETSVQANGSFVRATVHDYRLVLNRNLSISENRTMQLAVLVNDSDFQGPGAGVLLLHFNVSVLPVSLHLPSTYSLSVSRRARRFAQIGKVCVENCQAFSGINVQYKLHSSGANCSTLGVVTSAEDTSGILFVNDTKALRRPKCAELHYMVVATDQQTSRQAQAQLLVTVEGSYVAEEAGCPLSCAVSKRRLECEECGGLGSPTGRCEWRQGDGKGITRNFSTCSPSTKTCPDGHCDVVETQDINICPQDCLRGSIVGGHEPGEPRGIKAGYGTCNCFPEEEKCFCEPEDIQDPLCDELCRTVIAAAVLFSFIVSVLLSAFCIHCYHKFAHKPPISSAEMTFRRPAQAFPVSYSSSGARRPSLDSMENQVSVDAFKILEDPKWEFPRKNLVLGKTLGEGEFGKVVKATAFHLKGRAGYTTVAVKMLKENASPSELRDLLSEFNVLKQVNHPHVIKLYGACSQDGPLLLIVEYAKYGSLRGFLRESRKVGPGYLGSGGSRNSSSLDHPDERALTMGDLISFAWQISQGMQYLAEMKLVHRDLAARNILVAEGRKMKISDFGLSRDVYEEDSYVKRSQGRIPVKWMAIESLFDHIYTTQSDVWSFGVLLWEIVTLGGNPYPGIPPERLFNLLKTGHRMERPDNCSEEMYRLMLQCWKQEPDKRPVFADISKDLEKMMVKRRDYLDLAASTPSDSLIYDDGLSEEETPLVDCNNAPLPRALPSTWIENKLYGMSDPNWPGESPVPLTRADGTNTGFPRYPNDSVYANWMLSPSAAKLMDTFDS
Chain of Angiopoietin-1 receptor (Homo sapiens) (Q02763 whole entry, the tested form may be a part): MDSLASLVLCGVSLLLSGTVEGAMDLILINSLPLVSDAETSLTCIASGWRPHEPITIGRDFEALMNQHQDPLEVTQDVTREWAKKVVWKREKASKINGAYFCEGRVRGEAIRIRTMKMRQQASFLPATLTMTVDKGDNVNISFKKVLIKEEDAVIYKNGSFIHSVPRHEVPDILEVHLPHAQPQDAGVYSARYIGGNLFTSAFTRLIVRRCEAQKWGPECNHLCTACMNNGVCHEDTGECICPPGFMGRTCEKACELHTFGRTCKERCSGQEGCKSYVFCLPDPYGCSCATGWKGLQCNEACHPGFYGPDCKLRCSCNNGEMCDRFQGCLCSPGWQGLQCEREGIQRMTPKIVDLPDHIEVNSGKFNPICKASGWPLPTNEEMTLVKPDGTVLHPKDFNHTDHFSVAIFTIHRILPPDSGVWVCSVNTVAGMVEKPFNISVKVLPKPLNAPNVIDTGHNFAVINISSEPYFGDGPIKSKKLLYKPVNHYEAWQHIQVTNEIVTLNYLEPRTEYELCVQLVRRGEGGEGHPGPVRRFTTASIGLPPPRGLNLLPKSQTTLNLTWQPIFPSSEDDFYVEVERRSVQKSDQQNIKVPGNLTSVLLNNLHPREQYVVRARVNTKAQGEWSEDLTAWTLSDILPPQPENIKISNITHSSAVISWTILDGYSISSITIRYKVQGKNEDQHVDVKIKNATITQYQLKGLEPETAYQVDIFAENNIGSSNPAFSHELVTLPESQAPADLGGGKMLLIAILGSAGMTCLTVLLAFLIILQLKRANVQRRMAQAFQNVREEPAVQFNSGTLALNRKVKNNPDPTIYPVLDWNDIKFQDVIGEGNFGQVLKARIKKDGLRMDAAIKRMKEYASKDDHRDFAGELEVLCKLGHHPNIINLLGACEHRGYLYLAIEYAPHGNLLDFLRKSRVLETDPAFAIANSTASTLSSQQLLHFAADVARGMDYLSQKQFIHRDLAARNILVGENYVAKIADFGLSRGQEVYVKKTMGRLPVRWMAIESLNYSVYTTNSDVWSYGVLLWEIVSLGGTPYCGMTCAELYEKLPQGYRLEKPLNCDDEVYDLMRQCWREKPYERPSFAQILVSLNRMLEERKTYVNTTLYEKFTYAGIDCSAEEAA
Chain of Receptor tyrosine-protein kinase erbB-4 (Homo sapiens) (Q15303 whole entry): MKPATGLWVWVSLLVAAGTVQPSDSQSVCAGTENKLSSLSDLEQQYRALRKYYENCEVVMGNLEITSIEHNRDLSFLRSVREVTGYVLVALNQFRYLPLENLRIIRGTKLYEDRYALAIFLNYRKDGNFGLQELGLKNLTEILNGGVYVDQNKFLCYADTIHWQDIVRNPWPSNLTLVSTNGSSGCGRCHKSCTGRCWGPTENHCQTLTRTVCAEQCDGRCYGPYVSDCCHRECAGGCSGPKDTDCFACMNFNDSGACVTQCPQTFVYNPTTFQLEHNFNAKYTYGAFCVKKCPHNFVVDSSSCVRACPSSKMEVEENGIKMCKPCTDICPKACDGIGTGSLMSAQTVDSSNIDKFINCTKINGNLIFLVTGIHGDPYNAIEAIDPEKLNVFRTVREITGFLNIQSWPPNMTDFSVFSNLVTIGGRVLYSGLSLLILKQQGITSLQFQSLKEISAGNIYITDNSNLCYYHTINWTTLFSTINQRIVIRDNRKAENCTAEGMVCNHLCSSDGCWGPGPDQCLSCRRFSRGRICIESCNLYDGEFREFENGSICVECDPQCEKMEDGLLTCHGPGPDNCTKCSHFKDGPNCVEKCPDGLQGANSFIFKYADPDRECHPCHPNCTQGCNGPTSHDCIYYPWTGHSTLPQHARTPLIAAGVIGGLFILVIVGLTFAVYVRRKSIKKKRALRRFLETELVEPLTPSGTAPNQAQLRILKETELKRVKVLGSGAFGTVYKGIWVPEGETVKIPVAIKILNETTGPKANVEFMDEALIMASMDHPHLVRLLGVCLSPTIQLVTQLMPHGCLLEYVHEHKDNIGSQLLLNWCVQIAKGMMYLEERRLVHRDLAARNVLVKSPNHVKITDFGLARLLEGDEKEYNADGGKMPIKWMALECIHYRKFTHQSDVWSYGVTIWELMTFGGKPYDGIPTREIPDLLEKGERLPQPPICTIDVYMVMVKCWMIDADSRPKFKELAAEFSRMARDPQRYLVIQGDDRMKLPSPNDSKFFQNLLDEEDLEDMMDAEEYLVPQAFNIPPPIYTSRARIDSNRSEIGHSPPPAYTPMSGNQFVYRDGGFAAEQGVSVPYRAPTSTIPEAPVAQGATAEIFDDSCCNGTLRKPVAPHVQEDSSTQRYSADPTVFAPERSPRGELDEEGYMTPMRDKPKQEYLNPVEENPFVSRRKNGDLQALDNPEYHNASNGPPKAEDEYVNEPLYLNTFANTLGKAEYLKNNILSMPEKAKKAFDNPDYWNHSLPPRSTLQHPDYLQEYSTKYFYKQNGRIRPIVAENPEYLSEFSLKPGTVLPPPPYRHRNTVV
Chain of Mitogen-activated protein kinase 14 (Homo sapiens) (Q16539 whole entry): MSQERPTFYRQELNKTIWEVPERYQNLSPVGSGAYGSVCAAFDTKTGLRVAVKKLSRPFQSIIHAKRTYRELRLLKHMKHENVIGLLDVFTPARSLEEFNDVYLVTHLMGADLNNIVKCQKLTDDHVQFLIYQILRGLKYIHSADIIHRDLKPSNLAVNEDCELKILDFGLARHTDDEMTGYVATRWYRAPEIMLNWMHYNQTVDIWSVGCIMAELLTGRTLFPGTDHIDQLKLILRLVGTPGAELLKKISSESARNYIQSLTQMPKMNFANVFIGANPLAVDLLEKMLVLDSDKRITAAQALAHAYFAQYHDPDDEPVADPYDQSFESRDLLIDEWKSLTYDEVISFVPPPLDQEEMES
Chain of MAP kinase-activated protein kinase 5 (Homo sapiens) (Q8IW41 whole entry): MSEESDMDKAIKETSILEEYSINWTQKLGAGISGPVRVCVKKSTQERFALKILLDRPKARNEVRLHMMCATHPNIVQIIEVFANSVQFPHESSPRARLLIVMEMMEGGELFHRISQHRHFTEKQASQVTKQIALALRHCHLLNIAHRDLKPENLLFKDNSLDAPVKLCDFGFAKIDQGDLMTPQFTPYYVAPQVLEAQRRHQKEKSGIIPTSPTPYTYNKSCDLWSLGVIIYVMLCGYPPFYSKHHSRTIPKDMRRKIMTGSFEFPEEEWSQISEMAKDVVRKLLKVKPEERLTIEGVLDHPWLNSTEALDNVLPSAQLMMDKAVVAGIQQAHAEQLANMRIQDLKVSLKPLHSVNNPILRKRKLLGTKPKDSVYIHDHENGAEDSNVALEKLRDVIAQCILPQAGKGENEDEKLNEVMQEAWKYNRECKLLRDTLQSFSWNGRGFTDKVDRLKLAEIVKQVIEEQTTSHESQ
Chain of Tyrosine-protein kinase Yes (P07947 2-543 limits assumed): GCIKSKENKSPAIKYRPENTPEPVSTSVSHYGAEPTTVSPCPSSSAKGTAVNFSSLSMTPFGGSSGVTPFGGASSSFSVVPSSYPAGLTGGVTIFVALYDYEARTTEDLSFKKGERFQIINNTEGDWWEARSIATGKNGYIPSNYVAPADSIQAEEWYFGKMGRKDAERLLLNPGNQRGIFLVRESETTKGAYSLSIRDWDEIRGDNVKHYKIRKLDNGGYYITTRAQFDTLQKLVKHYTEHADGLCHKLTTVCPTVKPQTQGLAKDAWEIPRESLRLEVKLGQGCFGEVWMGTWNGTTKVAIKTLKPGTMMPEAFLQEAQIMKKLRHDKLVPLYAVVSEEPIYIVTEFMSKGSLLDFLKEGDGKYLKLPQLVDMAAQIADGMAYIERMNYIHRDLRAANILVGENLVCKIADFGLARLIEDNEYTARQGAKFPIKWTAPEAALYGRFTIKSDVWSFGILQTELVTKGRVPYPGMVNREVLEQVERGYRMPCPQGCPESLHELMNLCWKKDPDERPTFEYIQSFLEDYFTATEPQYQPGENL

COC(=O)c1cc2cc(NCc3cc(NC(=O)c4cc(-n5cnc(C)c5)cc(C(F)(F)F)c4)ccc3C)cnc2[nH]1
pIC50 [1]: 7.14
inhibition [2]: > 80%
inhibition [3]: > 80%
inhibition [4]: < 40%
inhibition [5]: < 40%
inhibition [6]: < 40%
pIC50 [7]: 7.34
inhibition [8]: < 40%
inhibition [9]: > 80%
inhibition [10]: > 80%
Cmax [11]: 853 ng/mL
pEC50 (HT-29): 7.43
inhibition [12]: < 40%
inhibition [13]: < 40%
inhibition [14]: < 40%
inhibition [15]: < 40%
inhibition [16]: < 40%
inhibition [17]: < 40%
pIC50 [18]: 7.16
inhibition [19]: < 40%
inhibition [20]: < 40%
pIC50 [21]: 6.95
inhibition [22]: < 40%
inhibition [23]: > 80%
inhibition [24]: < 40%
inhibition [25]: < 40%
inhibition [26]: < 40%
inhibition [27]: < 40%
inhibition [28]: > 80%
inhibition [29]: 54%
inhibition [30]: < 40%
inhibition [31]: < 40%
inhibition [32]: < 40%
inhibition [33]: < 40%
inhibition [34]: < 40%
inhibition [35]: > 80%
inhibition [36]: < 40%
Tmax [37]: 10 min
inhibition [38]: > 80%
